≈ marks a conversion by molar mass, not a printed value. Values belong to the compound of their own block, whether it stands above or below them. Calls of active or inactive are those of the source. The rule behind the calls is not given here.
Tests used:
[1] = target: T1, Tyrosine-protein kinase JAK1 (Homo sapiens, UniProt P23458)
[2] = target: T2, Non-receptor tyrosine-protein kinase TYK2 (Homo sapiens, UniProt P29597)
[3] = Apparent permeability across basolateral to apical side in dog MDCK cells; assay type: ADME, cell-based, Canis lupus familiaris
[4] = AUC in Lewis rat collagen-induced arthritis model at 100 mg/kg, po administered on day 10; assay type: ADME, organism-based; design: dose 100 mg/kg, route oral; settings: in vivo
[5] = Hepatic clearance in human hepatocytes after 1 to 4 hrs by LC/MS/MS analysis; assay type: ADME, cell-based, Liver, Hepatocyte
[6] = target: T2, Non-receptor tyrosine-protein kinase TYK2; remark: listed apart in the source
[7] = Cmax in Beagle dog at 2 mg/kg, po by LC/MS/MS analysis; assay type: ADME, organism-based, Canis lupus familiaris; design: dose 2 mg/kg, route oral; settings: in vivo
[8] = Metabolic stability in monkey hepatocytes assessed as hepatic clearance; assay type: ADME, cell-based, Macaca mulatta, Liver, Hepatocyte; settings: rhesus monkey
[9] = Metabolic stability in dog hepatocytes assessed as hepatic clearance; assay type: ADME, cell-based, Canis lupus familiaris, Liver, Hepatocyte
[10] = Thermodynamic solubility in aqueous buffer at pH 7.4; assay type: physicochemical; settings: read-out: Therm_solubility
Rattus norvegicus [11] = test: Antiarthritic activity in Lewis rat collagen-induced arthritis model assessed as decrease in mean ankle thicknesses at 100 mg/kg, po qd administered for 11 days; assay type: functional, organism-based; design: dose 100 mg/kg
[12] = target: Tyrosine-protein kinase JAK3 (Homo sapiens, UniProt P52333)
Tyrosine-protein kinase JAK3, sequence (P52333 whole entry): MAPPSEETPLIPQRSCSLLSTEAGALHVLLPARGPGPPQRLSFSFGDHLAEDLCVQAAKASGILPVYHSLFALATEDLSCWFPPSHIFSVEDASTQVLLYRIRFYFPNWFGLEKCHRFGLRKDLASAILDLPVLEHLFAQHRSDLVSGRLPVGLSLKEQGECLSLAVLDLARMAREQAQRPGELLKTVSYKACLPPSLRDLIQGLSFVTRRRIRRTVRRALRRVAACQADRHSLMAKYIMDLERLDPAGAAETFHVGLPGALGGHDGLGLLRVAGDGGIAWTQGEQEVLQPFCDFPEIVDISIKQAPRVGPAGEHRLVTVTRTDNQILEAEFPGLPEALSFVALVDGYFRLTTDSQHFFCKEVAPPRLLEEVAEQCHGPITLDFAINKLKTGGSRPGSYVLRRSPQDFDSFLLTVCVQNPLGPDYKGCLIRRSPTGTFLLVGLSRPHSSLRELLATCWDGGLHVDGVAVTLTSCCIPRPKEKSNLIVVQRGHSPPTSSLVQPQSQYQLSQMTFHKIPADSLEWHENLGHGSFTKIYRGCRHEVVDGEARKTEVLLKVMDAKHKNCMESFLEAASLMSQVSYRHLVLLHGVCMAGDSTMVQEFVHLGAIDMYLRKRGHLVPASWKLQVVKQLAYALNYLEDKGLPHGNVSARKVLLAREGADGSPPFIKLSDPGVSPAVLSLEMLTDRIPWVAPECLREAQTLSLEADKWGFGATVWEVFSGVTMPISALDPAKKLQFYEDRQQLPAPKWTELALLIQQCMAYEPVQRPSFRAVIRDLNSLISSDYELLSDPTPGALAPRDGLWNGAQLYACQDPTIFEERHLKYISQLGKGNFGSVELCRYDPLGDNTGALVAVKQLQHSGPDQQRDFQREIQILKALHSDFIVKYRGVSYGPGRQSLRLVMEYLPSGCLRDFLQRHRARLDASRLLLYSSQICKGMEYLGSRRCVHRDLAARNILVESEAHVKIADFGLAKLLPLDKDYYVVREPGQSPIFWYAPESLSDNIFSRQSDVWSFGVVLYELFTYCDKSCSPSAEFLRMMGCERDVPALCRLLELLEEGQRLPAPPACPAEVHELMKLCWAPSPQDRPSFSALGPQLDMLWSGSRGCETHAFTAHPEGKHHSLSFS

[13] = AUC in Lewis rat collagen-induced arthritis model at 500 mg/kg, po administered on day 20; assay type: ADME, organism-based; design: dose 500 mg/kg, route oral; settings: in vivo
Rattus norvegicus [14] = test: Antiarthritic activity in Lewis rat collagen-induced arthritis model assessed as decrease in mean ankle thicknesses at 20 mg/kg, po qd administered for 11 days; assay type: functional, organism-based; design: dose 20 mg/kg
[15] = target: T1, Tyrosine-protein kinase JAK1; remark: listed apart in the source
[16] = Half life in cynomolgus monkey at 0.4 mg/kg, iv by LC/MS/MS analysis; assay type: ADME, organism-based, Macaca fascicularis; design: dose 0.4 mg/kg, route intravenous; settings: in vivo
[17] = Plasma protein binding in rat; assay type: ADME, cell-free; settings: read-out: PPB (converted)
Cytochrome P450 2D6 = Cytochrome P450 2D6 (Homo sapiens, UniProt P10635)
Cytochrome P450 2D6, sequence (P10635 whole entry): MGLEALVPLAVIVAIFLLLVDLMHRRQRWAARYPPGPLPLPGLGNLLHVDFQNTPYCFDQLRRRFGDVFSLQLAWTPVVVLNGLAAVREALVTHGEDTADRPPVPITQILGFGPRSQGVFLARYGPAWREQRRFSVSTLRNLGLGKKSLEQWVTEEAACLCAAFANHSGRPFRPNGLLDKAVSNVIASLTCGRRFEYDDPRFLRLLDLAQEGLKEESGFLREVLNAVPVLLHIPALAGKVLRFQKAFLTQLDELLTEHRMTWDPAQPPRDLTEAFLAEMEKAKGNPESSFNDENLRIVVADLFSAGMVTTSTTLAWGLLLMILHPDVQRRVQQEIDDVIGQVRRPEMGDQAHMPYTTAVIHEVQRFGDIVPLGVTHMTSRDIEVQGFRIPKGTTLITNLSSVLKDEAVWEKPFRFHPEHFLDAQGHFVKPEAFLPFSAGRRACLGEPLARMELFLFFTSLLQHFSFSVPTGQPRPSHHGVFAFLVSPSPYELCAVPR

[18] = Plasma protein binding in dog; assay type: ADME, cell-free, Canis lupus familiaris; settings: read-out: PPB (converted)
Cytochrome P450 3A4 [19] = target: T3, Cytochrome P450 3A4 (Homo sapiens, UniProt P08684); test: Reversible inhibition of CYP3A4 in human liver microsomes using testosterone as substrate by LC/MS/MS analysis; assay type: ADME, Microsome
T3 sequence (P08684 whole entry): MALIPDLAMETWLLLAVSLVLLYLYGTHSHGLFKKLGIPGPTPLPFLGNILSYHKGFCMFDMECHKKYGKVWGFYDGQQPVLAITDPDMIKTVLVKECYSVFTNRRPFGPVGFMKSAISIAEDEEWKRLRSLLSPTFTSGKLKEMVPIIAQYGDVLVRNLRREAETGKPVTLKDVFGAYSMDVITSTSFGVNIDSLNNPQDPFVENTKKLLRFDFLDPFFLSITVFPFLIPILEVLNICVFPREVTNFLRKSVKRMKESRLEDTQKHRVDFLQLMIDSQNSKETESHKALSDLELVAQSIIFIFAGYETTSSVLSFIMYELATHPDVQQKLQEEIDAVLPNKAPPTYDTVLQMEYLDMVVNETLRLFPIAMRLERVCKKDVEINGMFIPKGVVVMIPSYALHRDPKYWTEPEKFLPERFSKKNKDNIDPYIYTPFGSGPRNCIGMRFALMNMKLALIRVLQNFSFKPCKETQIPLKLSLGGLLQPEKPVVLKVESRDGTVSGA

[20] = AUC in Sprague-Dawley rat at 2 mg/kg, po by LC/MS/MS analysis; assay type: ADME, organism-based; design: dose 2 mg/kg, route oral; settings: plasma
[21] = AUC in Beagle dog at 2 mg/kg, po by LC/MS/MS analysis; assay type: ADME, organism-based, Canis lupus familiaris; design: dose 2 mg/kg, route oral; settings: plasma
[22] = AUC in cynomolgus monkey at 2 mg/kg, po by LC/MS/MS analysis; assay type: ADME, organism-based, Macaca fascicularis; design: dose 2 mg/kg, route oral; settings: plasma
[23] = Plasma protein binding in cynomolgus monkey; assay type: ADME, cell-free, Macaca fascicularis; settings: read-out: PPB (converted)
[24] = Clearance in Sprague-Dawley rat at 0.4 mg/kg, iv by LC/MS/MS analysis; assay type: ADME, organism-based; design: dose 0.4 mg/kg, route intravenous; settings: in vivo
[25] = Half life in Sprague-Dawley rat at 0.4 mg/kg, iv by LC/MS/MS analysis; assay type: ADME, organism-based; design: dose 0.4 mg/kg, route intravenous; settings: in vivo
[26] = Oral bioavailability in cynomolgus monkey at 2 mg/kg by LC/MS/MS analysis; assay type: ADME, organism-based, Macaca fascicularis; settings: in vivo
[27] = Clearance in Beagle dog at 0.4 mg/kg, iv by LC/MS/MS analysis; assay type: ADME, organism-based, Canis lupus familiaris; design: dose 0.4 mg/kg, route intravenous; settings: in vivo
[28] = AUC in Lewis rat collagen-induced arthritis model at 20 mg/kg, po administered on day 10; assay type: ADME, organism-based; design: dose 20 mg/kg, route oral; settings: in vivo
[29] = AUC in Lewis rat collagen-induced arthritis model at 20 mg/kg, po administered on day 20; assay type: ADME, organism-based; design: dose 20 mg/kg, route oral; settings: in vivo
Cytochrome P450 3A4 [30] = target: T3, Cytochrome P450 3A4; test: Reversible inhibition of CYP3A4 in human liver microsomes using midazolam as substrate by LC/MS/MS analysis; assay type: ADME, Microsome
[31] = target: Voltage-gated inwardly rectifying potassium channel KCNH2 (Homo sapiens, UniProt Q12809)
[32] = Cmax in Sprague-Dawley rat at 2 mg/kg, po by LC/MS/MS analysis; assay type: ADME, organism-based; design: dose 2 mg/kg, route oral; settings: in vivo
[33] = Half life in Beagle dog at 0.4 mg/kg, iv by LC/MS/MS analysis; assay type: ADME, organism-based, Canis lupus familiaris; design: dose 0.4 mg/kg, route intravenous; settings: in vivo
Rattus norvegicus [34] = test: Antiarthritic activity in Lewis rat collagen-induced arthritis model assessed as decrease in mean ankle thicknesses at 500 mg/kg, po qd administered for 11 days; assay type: functional, organism-based; design: dose 500 mg/kg
[35] = Oral bioavailability in Sprague-Dawley rat at 2 mg/kg by LC/MS/MS analysis; assay type: ADME, organism-based; settings: Sprague-Dawley, in vivo
Cytochrome P450 2C9 = Cytochrome P450 2C9 (Homo sapiens, UniProt P11712)
Cytochrome P450 2C19 = Cytochrome P450 2C19 (Homo sapiens, UniProt P33261)
Cytochrome P450 2C19, sequence (P33261 whole entry): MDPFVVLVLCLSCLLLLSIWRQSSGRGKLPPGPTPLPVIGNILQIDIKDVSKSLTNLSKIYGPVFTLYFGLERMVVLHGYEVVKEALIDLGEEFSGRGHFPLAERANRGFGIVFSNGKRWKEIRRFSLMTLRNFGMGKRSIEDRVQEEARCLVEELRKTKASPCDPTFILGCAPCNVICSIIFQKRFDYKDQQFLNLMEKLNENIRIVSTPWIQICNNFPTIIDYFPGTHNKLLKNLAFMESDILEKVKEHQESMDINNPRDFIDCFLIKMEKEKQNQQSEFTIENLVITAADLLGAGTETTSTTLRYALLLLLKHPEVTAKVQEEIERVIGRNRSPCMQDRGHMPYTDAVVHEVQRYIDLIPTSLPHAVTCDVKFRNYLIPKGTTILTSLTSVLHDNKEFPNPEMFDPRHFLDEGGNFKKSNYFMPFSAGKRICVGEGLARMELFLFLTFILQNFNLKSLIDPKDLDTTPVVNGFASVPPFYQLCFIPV

[36] = Cmax in cynomolgus monkey at 2 mg/kg, po by LC/MS/MS analysis; assay type: ADME, organism-based, Macaca fascicularis; design: dose 2 mg/kg, route oral; settings: in vivo
[37] = Apparent permeability across apical to basolateral side in dog MDCK cells; assay type: ADME, cell-based, Canis lupus familiaris
Cytochrome P450 1A2 = target: T4, Cytochrome P450 1A2 (Homo sapiens, UniProt P05177); test: Reversible inhibition of CYP1A2 in human liver microsomes using phenacetin as substrate by LC/MS/MS analysis; assay type: ADME, Microsome
T4 sequence (P05177 whole entry): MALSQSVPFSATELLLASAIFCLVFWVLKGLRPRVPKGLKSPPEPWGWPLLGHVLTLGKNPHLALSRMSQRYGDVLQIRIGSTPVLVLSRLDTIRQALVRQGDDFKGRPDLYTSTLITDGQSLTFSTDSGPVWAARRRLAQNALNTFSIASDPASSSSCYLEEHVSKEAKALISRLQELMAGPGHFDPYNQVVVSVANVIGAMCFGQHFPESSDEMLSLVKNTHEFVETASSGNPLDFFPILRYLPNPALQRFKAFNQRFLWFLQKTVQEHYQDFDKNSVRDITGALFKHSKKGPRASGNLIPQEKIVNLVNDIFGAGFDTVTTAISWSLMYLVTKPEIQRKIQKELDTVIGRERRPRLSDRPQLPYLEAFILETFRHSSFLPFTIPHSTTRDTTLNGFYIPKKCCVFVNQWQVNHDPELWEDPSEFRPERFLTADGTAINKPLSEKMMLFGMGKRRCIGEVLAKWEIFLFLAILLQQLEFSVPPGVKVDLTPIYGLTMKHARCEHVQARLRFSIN

[38] = Thermodynamic solubility in aqueous buffer at pH 2; assay type: physicochemical; settings: read-out: Therm_solubility
[39] = (§1) Oral bioavailability in Beagle dog at 2 mg/kg by LC/MS/MS analysis; assay type: ADME, organism-based, Canis lupus familiaris; settings: Beagle, in vivo
[40] = AUC in Lewis rat collagen-induced arthritis model at 500 mg/kg, po administered on day 10; assay type: ADME, organism-based; design: dose 500 mg/kg, route oral; settings: in vivo
[41] = Hepatic clearance in human liver microsomes by LC/MS/MS analysis; assay type: ADME, Microsome
[42] = system: Platelet-derived growth factor receptor alpha (Homo sapiens), P16234 [V561D]; test: Inhibition of PDGFRalpha V561D mutant (unknown origin) at 1 uM
[43] = AUC in Lewis rat collagen-induced arthritis model at 100 mg/kg, po administered on day 20; assay type: ADME, organism-based; design: dose 100 mg/kg, route oral; settings: in vivo
[44] = Metabolic stability in rat hepatocytes assessed as hepatic clearance; assay type: ADME, cell-based, Liver, Hepatocyte
[45] = Clearance in cynomolgus monkey at 0.4 mg/kg, iv by LC/MS/MS analysis; assay type: ADME, organism-based, Macaca fascicularis; design: dose 0.4 mg/kg, route intravenous; settings: in vivo
[46] = target: T1, Tyrosine-protein kinase JAK1; remark: listed apart in the source
Canis familiaris = test: as §1; assay type: ADME, organism-based, Canis lupus familiaris; settings: in vivo

T1 sequence (P23458 whole entry): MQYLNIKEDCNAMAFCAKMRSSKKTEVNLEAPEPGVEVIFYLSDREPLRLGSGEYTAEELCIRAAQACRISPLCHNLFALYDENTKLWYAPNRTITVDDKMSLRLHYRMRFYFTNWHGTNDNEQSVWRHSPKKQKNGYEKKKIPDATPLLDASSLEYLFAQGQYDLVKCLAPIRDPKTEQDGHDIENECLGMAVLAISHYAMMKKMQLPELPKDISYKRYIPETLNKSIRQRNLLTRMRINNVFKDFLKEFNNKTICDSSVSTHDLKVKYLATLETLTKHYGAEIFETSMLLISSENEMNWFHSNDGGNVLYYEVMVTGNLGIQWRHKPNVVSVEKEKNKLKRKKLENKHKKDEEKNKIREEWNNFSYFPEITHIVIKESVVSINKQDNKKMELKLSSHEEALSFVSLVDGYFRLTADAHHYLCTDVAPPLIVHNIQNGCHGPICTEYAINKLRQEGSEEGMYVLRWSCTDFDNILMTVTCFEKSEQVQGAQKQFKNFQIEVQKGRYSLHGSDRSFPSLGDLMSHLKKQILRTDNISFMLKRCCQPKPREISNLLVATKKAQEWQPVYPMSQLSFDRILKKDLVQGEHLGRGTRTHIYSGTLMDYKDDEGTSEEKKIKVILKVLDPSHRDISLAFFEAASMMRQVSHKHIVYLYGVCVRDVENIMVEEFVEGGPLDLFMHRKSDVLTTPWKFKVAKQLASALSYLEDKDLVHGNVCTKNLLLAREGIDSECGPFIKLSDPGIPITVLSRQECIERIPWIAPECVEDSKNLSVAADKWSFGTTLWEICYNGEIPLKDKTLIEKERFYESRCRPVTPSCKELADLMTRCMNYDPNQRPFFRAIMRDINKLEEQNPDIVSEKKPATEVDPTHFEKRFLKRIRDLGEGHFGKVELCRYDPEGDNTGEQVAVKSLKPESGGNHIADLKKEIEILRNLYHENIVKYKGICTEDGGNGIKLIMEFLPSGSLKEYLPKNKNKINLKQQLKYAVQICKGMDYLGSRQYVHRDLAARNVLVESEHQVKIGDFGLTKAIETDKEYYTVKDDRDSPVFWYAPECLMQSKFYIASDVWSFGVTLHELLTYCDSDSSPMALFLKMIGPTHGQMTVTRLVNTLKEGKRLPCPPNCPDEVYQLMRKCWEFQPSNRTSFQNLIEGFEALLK
T2 sequence (P29597 whole entry): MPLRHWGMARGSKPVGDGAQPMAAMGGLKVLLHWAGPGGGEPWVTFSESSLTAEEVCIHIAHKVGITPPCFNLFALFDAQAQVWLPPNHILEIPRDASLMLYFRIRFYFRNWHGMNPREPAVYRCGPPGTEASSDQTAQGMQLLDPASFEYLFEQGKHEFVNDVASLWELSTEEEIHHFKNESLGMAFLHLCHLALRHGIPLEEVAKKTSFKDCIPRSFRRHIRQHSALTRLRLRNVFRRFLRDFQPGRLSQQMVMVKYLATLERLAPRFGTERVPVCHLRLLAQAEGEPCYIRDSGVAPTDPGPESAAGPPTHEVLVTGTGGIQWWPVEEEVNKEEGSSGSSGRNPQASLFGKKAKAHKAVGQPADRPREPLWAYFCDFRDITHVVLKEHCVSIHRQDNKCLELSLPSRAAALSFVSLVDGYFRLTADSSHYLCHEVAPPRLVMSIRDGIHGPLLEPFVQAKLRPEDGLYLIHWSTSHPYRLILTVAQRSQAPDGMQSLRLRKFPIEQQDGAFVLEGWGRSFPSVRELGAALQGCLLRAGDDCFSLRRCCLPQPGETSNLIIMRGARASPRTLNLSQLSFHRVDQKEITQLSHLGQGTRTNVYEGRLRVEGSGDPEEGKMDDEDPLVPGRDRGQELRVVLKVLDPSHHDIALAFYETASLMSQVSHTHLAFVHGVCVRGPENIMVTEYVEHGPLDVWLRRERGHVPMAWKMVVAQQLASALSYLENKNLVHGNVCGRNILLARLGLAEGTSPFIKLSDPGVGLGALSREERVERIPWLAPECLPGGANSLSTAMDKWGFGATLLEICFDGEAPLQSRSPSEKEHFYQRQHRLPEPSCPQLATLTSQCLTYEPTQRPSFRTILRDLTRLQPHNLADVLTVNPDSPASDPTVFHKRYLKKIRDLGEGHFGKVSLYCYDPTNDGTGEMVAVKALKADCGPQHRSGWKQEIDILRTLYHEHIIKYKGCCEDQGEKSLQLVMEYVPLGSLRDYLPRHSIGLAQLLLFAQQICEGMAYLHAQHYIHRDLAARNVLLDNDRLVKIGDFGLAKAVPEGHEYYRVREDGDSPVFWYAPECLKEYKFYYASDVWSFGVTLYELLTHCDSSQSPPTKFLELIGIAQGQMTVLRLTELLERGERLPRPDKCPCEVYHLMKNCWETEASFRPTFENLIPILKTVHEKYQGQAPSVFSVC

- EC50 [1]: 120 nM
- Ki [2]: 12 nM
- Papp B→A [3]: 4.7 ×10⁻⁶ cm/s
- AUC [4]: 59.6 µM·h
- CLhep predicted [5]: 1.7 mL/min/kg
- EC50 [6]: 5600 nM
- Cmax [7]: 2100 nM
- CLhep predicted [8]: 2.4 mL/min/kg
- CLhep predicted [9]: 3 mL/min/kg
- solubility thermodynamic [10]: 1900 µM (≈ 588 µg/mL)
- Ki [12]: 280 nM
- AUC [13]: 269 µM·h
- Ki [15]: 1.9 nM
- half-life [16]: 102 min
- fraction unbound [17]: 0.62
- IC50 (Cytochrome P450 2D6): > 10 µM
- fraction unbound [18]: 0.53
- IC50 (Cytochrome P450 3A4 [19]): > 10 µM
- AUC [20]: 0.94 µM·h
- AUC [21]: 8.3 µM·h
- AUC [22]: 3.9 µM·h
- fraction unbound [23]: 0.4
- clearance [24]: 60 mL/min/kg
- half-life [25]: 30 min
- bioavailability [26]: 65%
- clearance [27]: 16 mL/min/kg
- AUC [28]: 15 µM·h
- AUC [29]: 10.6 µM·h
- IC50 (Cytochrome P450 3A4 [30]): 7.9 µM
- Cmax [32]: 420 nM
- half-life [33]: 132 min
- bioavailability [35]: 52%
- IC50 (Cytochrome P450 2C9): > 10 µM
- IC50 (Cytochrome P450 2C19): > 10 µM
- Cmax [36]: 630 nM
- Papp A→B [37]: 2.7 ×10⁻⁶ cm/s
- IC50 (Cytochrome P450 1A2): > 10 µM
- solubility thermodynamic [38]: > 4 mM
- bioavailability [39]: 119%
- AUC [40]: 467 µM·h
- CLhep predicted [41]: 3.3 mL/min/kg
- inhibition [42]: 55%
- AUC [43]: 50.1 µM·h
- CLhep predicted [44]: 3.7 mL/min/kg
- clearance [45]: 18 mL/min/kg
- EC50 [46]: 130 nM
SMILES: C[C@@H](O)c1nc2cnc3[nH]ccc3c2n1[C@H]1CC[C@H](C#N)CC1
- Activity (Rattus norvegicus [11]): Active
- Activity (Rattus norvegicus [14]): Active
- IC50 [31]: > 100 µM
- Activity (Rattus norvegicus [34]): Active

- EC50 [1]: 5.7 nM
- Ki [2]: 0.4 nM
- Papp B→A [3]: 4.9 ×10⁻⁶ cm/s
- CLhep predicted [5]: 6.8 mL/min/kg
- EC50 [6]: 100 nM
- Cmax [7]: 2500 nM
- CLhep predicted [8]: 25 mL/min/kg
- CLhep predicted [9]: 12 mL/min/kg
- solubility thermodynamic [10]: 130 µM (≈ 42 µg/mL)
- Ki [12]: 5.9 nM
- Ki [15]: 0.1 nM
- fraction unbound [17]: 0.37
- IC50 (Cytochrome P450 2D6): > 10 µM
- fraction unbound [18]: 0.37
- IC50 (Cytochrome P450 3A4 [19]): > 10 µM
- AUC [20]: 1.3 µM·h
- AUC [21]: 11.2 µM·h
- fraction unbound [23]: 0.3
- clearance [24]: 38 mL/min/kg
- half-life [25]: 30 min
- clearance [27]: 17 mL/min/kg
- IC50 (Cytochrome P450 3A4 [30]): 8.8 µM
- Cmax [32]: 930 nM
- half-life [33]: 108 min
- bioavailability [35]: 49%
- IC50 (Cytochrome P450 2C9): > 10 µM
- IC50 (Cytochrome P450 2C19): > 10 µM
- Papp A→B [37]: 3.5 ×10⁻⁶ cm/s
- IC50 (Cytochrome P450 1A2): > 10 µM
- solubility thermodynamic [38]: > 4 mM
- F (Canis familiaris): 183%
- CLhep predicted [41]: 5.2 mL/min/kg
- CLhep predicted [44]: 15 mL/min/kg
- EC50 [46]: 28 nM
SMILES: C[C@@H](O)c1nc2cnc3[nH]ccc3c2n1[C@H]1CC[C@H](CC#N)CC1
